Molecular target: T1, Erbb2 (Mus musculus, UniProt P70424)
T1 construct: endogenous in cells; host or cells: primary newborn mouse keratinocytes; also mouse epidermis/skin extracts
Test: UV-induced activation (phosphorylation) of Erbb2
Assay type: cell-based
Description: For some experiments, the epidermis was separated from the skin by the heat shock method before homogenization. Keratinocytes were lysed in the same buffer. Membranes were immunoblotted with antibodies recognizing Erbb2, phospho-Erbb2 (Tyr^1248), EGFR, phospho-EGFR (Tyr^992), phospho-EGFR (Tyr^1173), phosphotyrosine, and Tall (Calbiochem, San Diego, Calif.). Binding of horseradish peroxidase-conjugated secondary antibodies (Cell Signaling, Beverly, Mass.) was visualized using chemiluminescent reagents (Pierce, Rockford, Ill.) and autoradiography. Densitometry was performed using IDScan software (Scanalytics, Fairfax, Va.).
Several methods were developed to regulate Erbb2 expression and activity both in vitro and in vivo.

T1 sequence (P70424 23-1256): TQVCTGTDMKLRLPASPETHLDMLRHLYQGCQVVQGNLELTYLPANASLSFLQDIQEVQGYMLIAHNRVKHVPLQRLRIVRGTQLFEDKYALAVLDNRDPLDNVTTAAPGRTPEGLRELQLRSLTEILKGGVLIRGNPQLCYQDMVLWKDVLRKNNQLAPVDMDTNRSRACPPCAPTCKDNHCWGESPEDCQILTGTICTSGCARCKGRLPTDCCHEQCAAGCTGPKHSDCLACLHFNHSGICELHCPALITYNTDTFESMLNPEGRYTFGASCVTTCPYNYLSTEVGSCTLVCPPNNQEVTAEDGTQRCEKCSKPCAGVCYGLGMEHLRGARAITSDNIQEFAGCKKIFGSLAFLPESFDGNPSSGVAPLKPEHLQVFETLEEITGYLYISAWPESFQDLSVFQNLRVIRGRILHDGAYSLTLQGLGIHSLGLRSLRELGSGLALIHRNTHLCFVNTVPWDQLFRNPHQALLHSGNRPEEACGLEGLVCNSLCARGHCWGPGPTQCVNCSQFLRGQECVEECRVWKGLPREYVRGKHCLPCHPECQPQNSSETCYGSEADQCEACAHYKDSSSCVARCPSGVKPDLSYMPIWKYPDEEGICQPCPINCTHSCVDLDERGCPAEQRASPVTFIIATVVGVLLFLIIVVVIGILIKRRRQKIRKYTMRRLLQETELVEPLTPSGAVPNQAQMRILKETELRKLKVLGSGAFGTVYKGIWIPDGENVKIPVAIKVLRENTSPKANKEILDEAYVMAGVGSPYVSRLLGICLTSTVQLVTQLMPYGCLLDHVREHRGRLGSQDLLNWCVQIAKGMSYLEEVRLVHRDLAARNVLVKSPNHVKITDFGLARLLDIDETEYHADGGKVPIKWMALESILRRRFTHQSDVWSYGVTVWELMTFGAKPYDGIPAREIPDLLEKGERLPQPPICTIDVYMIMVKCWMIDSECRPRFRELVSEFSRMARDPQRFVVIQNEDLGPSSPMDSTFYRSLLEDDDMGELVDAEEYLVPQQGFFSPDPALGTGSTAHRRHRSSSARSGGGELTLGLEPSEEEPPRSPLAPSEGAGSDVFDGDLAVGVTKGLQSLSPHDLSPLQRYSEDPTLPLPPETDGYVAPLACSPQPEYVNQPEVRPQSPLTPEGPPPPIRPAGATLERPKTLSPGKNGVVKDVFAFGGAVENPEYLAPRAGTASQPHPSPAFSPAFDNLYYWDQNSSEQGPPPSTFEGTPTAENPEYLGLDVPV

COc1cc(/C=C(\C#N)C(N)=O)cc(CSc2nc3ccccc3s2)c1O [AG825] was tested, and the “duration of the inhibition of Erbb2” value was “less than 24 h”, the “activation of Erbb2 by UV” value (both in vivo and in vitro) was “blocked” and the “UV-induced phosphorylation of Erbb2 at Tyr1248” value (cultured keratinocytes) was “inhibited”.

From US20080119530A1, “Method for treatment and prevention of ultraviolet light induced skin pathologies” (priority 2006, published 2008)
